In article PMC6017136, “Efficient Synthesis and Bioactivity of Novel Triazole Derivatives” (Molecules : A Journal of Synthetic Chemistry and Natural …, 2018):

Columns and labels:
Assay in all cases: microbe, parasite or virus in culture
[1] = test system: Pyricularia oryzae Cav.; settings: read-out: Inhibition Ratio (%) / Pyricularia oryzae Cav.
[2] = test system: Sclerotinia sclerotiorum (Lib.) de Bary; settings: read-out: Inhibition Ratio (%) / S. sclerotiorum
[3] = test system: Phytophthora capsici P. CapasiciLeonian; settings: read-out: Inhibition Ratio (%) / P. CapasiciLeonian
[4] = test system: Fusarium oxysporum Schl. F.sp. vasinfectum (Atk.) Snyd. & Hans.; settings: read-out: Inhibition Ratio (%) / Fusarium oxysporum Schl. F.sp. vasinfectum (Atk.) Snyd. & Hans.
[5] = test system: Botrytis cinerea Pers; settings: read-out: Inhibition Ratio (%) / B. cinerea

Row | SMILES | inhibition at 50 µg/mL [1] [%] | inhibition at 50 µg/mL [2] [%] | inhibition at 50 µg/mL [3] [%] | inhibition at 50 µg/mL [4] [%] | inhibition at 50 µg/mL [5] [%]
1 | CO[C@H]1C(Cn2cc(-c3ccccc3)nn2)OC(OC(C)=O)[C@@H]1OC(C)=O (stereo partly drawn) [5-a, Furan glucosyl-1,2,3-triazole (5-a)] | 62.7 | 57.6 | 42.3 | 61.3 | 36.1
2 | CO[C@H]1[C@@H](Cn2cc(-c3ccccc3)nn2)OC(O)[C@@H]1O (stereo partly drawn) [3-a, Furan glucosyl-1,2,3-triazole (3-a)] | 61.2 | 30.3 | 40.1 | 58.7 | 33.3
3 | COc1ccc(-c2cn(C[C@H]3OC(O)[C@H](O)[C@H]3OC)nn2)cc1 (stereo partly drawn) [3-c, Furan glucosyl-1,2,3-triazole (3-c)] | 30.1 | 31.5 | 38.9 | 29.3 | 10.4
4 | CC(=O)OC1O[C@H](Cn2cc(-c3ccc([N+](=O)[O-])cc3)nn2)[C@H](OCc2ccccc2)[C@H]1OC(C)=O (stereo partly drawn) [6-e, Furan glucosyl-1,2,3-triazole (6-e)] | 48.9 | 56.3 | 50.3 | 59.3 | 27.4
5 | CC(O)c1cn(C[C@H]2OC(O)[C@H](O)[C@H]2OCc2ccccc2)nn1 (stereo partly drawn) [4-g, Furan glucosyl-1,2,3-triazole (4-g)] | 21.3 | 13.5 | 24.5 | 20.9 | 12.1
6 | Cc1cccc(-c2cn(C[C@H]3OC(O)[C@H](O)[C@H]3OCc3ccccc3)nn2)c1 (stereo partly drawn) [4-b, Furan glucosyl-1,2,3-triazole (4-b)] | 27.8 | 29.9 | 29.6 | 27.1 | 10.9
7 | CO[C@H]1[C@@H](Cn2cc(C(C)O)nn2)OC(O)[C@@H]1O (stereo partly drawn) [3-g, Furan glucosyl-1,2,3-triazole (3-g)] | 21.5 | 13.7 | 23.1 | 23.4 | 11.5
8 | N#Cc1c(Cl)c(Cl)c(Cl)c(C#N)c1Cl [Chlorothalonil] | 89.2 | 95.5 | 94.2 | 94.2 | 98
9 | CO[C@H]1[C@@H](Cn2cc(-c3ccc(Cl)cc3)nn2)OC(O)[C@@H]1O (stereo partly drawn) [3-f, Furan glucosyl-1,2,3-triazole (3-f)] | 50.7 | 25.3 | 46.8 | 57.6 | 20.5
10 | OC1O[C@H](Cn2cc(-c3ccccc3)nn2)[C@H](OCc2ccccc2)[C@H]1O (stereo partly drawn) [4-a, Furan glucosyl-1,2,3-triazole (4-a)] | 37.8 | 26.4 | 21.2 | 35.4 | 19.5
11 | CO[C@H]1[C@@H](Cn2cc(-c3ccc(F)cc3)nn2)OC(O)[C@@H]1O (stereo partly drawn) [3-d, Furan glucosyl-1,2,3-triazole (3-d)] | 47.8 | 38.4 | 50.2 | 40.2 | 19.1
12 | CC(=O)OC1O[C@H](Cn2cc(-c3ccc(F)cc3)nn2)[C@H](OCc2ccccc2)[C@H]1OC(C)=O (stereo partly drawn) [6-d, Furan glucosyl-1,2,3-triazole (6-d)] | 50.2 | 64.7 | 57.1 | 58.6 | 26.7
13 | OC1O[C@H](Cn2cc(-c3ccc(Cl)cc3)nn2)[C@H](OCc2ccccc2)[C@H]1O (stereo partly drawn) [4-f, Furan glucosyl-1,2,3-triazole (4-f)] | 40.2 | 31.7 | 38.7 | 43.1 | 22.2
14 | OC1O[C@H](Cn2cc(-c3ccc(F)cc3)nn2)[C@H](OCc2ccccc2)[C@H]1O (stereo partly drawn) [4-d, Furan glucosyl-1,2,3-triazole (4-d)] | 35.6 | 34.7 | 35.4 | 37.8 | 20.3
15 | CO[C@H]1[C@@H](Cn2cc(-c3ccc(F)cc3)nn2)OC(OC(C)=O)[C@@H]1OC(C)=O (stereo partly drawn) [5-d, Furan glucosyl-1,2,3-triazole (5-d)] | 69.2 | 67.6 | 65.2 | 70.9 | 23.2
16 | CO[C@H]1[C@@H](Cn2cc(-c3cccc(C)c3)nn2)OC(O)[C@@H]1O (stereo partly drawn) [3-b, Furan glucosyl-1,2,3-triazole (3-b)] | 35.4 | 28.4 | 35.6 | 34.1 | 15.3
17 | CO[C@H]1[C@@H](Cn2cc(-c3ccc([N+](=O)[O-])cc3)nn2)OC(O)[C@@H]1O (stereo partly drawn) [3-e, Furan glucosyl-1,2,3-triazole (3-e)] | 23.1 | 39.6 | 44.7 | 25.6 | 17.1
18 | CO[C@@H]1[C@H]2OC(C)(C)O[C@H]2O[C@@H]1Cn1cc(-c2ccc(Cl)cc2)nn1 [1-f, Furan glucosyl-1,2,3-triazole (1-f)] | 82.4 | 85.1 | 81.2 | 89 | 71
19 | CO[C@H]1[C@@H](Cn2cc(-c3ccc(Cl)cc3)nn2)OC(OC(C)=O)[C@@H]1OC(C)=O (stereo partly drawn) [5-f, Furan glucosyl-1,2,3-triazole (5-f)] | 60.5 | 56.1 | 68.2 | 71.5 | 27.6
20 | CO[C@H]1[C@@H](Cn2cc(-c3ccc([N+](=O)[O-])cc3)nn2)OC(OC(C)=O)[C@@H]1OC(C)=O (stereo partly drawn) [5-e, Furan glucosyl-1,2,3-triazole (5-e)] | 56.9 | 64.9 | 67.7 | 69.5 | 22.1
21 | COc1ccc(-c2cn(C[C@H]3OC(OC(C)=O)[C@H](OC(C)=O)[C@H]3OC)nn2)cc1 (stereo partly drawn) [5-c, Furan glucosyl-1,2,3-triazole (5-c)] | 40.8 | 43.1 | 47.2 | 30 | 19.2
